Test results published in PubChem BioAssay AID720513 (Broad Institute, 2013).
Results filed as inconclusive are left out.

Test system: U2OS PGC1a acetylation AlphaLISA, overnight
Assay: activators raising PGC1a acetylation in cells, dose response, cell-based, cherry-picked samples, set 6 (AID 720513);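 note: cells made to overexpress flag tagged PGC1a plus GCN5 acetyltransferase by viral infection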

| Compound | AC40 [µM] |
| --- | --- |
| Cc1cccc2cc(CN(Cc3ccc(F)cc3)Cc3nnnn3C3CCCC3)c(=O)[nH]c12 | 4.14 |
| CCN(CC)c1ccc(NC(=O)c2cc(OC)cc(OC)c2)c(C)c1 | 12.3 |
| CCOC(=O)C1CCCN(S(=O)(=O)c2ccc3c(c2)NC(=O)CO3)C1 (stereo unspecified) | 0.439 |
| O=C(NCc1cccnc1)c1ccc(NC(=O)c2ccc(Br)cc2)cc1 | < 0.16 |
| CCN1CCN(c2cc(C)c3cc(NC(=O)c4ccc(Br)o4)ccc3n2)CC1 | 8.23 |
| COc1ccc(C)cc1NS(=O)(=O)c1ccc(NC(=O)CN(c2cc([N+](=O)[O-])ccc2C)S(C)(=O)=O)cc1 | 0.426 |
| CCOC(=O)c1c(NC(=O)c2ccoc2C)sc2c1CCC2 | 13.9 |
| Cc1ccc(OC(=O)N(C)C[C@H]2OCc3ccccc3-c3c(n(C)c4ccccc34)C(=O)N([C@H](C)CO)C[C@H]2C)cc1 | 7.6 |
| C[C@@H]1CN([C@H](C)CO)C(=O)c2c(c3ccccc3n2C)-c2ccccc2CO[C@@H]1CN(C)C(=O)Nc1ccc2c(c1)OCO2 | 10.7 |
| COc1cc2cc(-c3ccc(O)cc3O)nc(C)c2cc1OC | 19.3 |
| Cc1cc(C)cc(N(CC(=O)NC2CC3CCC2C3)S(C)(=O)=O)c1 (stereo unspecified) | 17.1 |
| CCN(CC)CC(=O)N1c2ccccc2CCc2ccc(NC(=O)c3cc(OC)c(OC)c(OC)c3)cc21 | 8.84 |
| COc1ccc(S(=O)(=O)Nc2ccc3c(c2)C(=O)N([C@@H](C)CO)C[C@@H](C)[C@H](CN(C)S(=O)(=O)c2ccc(Cl)cc2)OCCCC[C@H](C)O3)cc1 | 9.66 |
| O=C(Cc1ccccc1)Nc1ccc(NC(=O)c2cccs2)cc1 | 1.23 |
| O=C1C=C(c2cc3ccccc3s2)CCC1 | 3.77 |
| COC(=O)c1cc(S(=O)(=O)N2CCN(c3ccc(C(C)=O)cc3)CC2)c[nH]1 | 4.17 |
| COc1ccc(-n2c(=O)c3c4c(sc3n3c(=S)[nH]nc23)CCC4)cc1 | 0.563 |
| CC(OC(=O)C1CCCC1)C(=O)Nc1ccc(C(N)=O)cc1 (stereo unspecified) | 15.8 |
| CN1CCN(c2ccc(CNC(=O)c3ccc(-c4ccnn4C)c4ccoc34)cc2)CC1 | 9.27 |
| CCCCCOC(=O)Cc1c(O)c2ccccc2n(C)c1=O | 9.64 |
| O=C(Cc1ccc(Cl)cc1)c1c[nH]c(C(=O)NCc2cccnc2)c1 | 3.56 |
| CSc1nn(-c2ccc(C(=O)OC(C(=O)NC(N)=O)C(C)C)cc2)c(=S)s1 (stereo unspecified) | 4.42 |
| COc1ccc(Br)cc1CNc1ccccc1 | 8.98 |
| CC(NS(=O)(=O)c1ccccc1Cl)C1CC2CCC1C2 (stereo unspecified) | 0.415 |
| COC(=O)C(Nc1ccccc1Cl)(c1cc(C)c(O)c(C)c1)C(F)(F)F (stereo unspecified) | 0.641 |
| COc1cccc(CN2C[C@@H]3N[C@H](C2)C3c2ccc(-c3ccccc3F)cc2)c1 (stereo partly specified) | 16.3 |

| Compound | AC40 [µM] |
| --- | --- |
| COC(=O)c1ccc(NC(=O)C23CC4CC(C2)CC(n2cnc(Cl)n2)(C4)C3)cc1 | 1.82 |
| O=C(c1ccccc1)c1nn(-c2ccc(Cl)cc2)c(=O)cc1C(F)(F)F | 0.451 |
| Cc1ccc(-c2nnc(N3CCN(C(=O)COc4ccccc4)CC3)c3ccccc23)cc1 | 0.734 |
| CCOc1ccc(NC2c3ccccc3C(=O)N2Cc2ccc3c(c2)OCO3)cc1 (stereo unspecified) | 16.3 |
| CC1(Cc2ccc(Cl)s2)C(=O)Nc2c(Cl)ccc(Cl)c21 (stereo unspecified) | 11.3 |
| O=C(COCc1cc(-c2ccc3c(c2)OCO3)on1)Nc1cccnc1 | 0.458 |
| Clc1ccc(-c2nnc(-c3ccccc3)nc2N2CCSCC2)cc1 | 17.7 |
| COCCCn1c(N)c(C(=O)Nc2ccccc2)c2nc3ccccc3nc21 | 1.18 |
| COc1ccc2c(c1)CCc1c(C(=O)NCCCn3ccnc3)noc1-2 | 18.9 |
| Cc1ccc(C(=O)N2CCN(c3ccc(NC(=O)c4ccc(Br)o4)cc3)CC2)cc1 | 3.72 |
| COc1ccc(NC(=O)CSC2CC(=O)N(c3ccc4c(c3)OCCO4)C2=O)cc1 (stereo unspecified) | 16.5 |
| CC(=O)c1cccc(N(C(=O)Cn2nnc3ccccc32)C(C(=O)NCc2ccccc2)c2ccccn2)c1 (stereo unspecified) | 10.5 |
| CC1CC1C(=O)OCC(=O)NCc1ccc(Cl)cc1 (stereo unspecified) | 18.2 |
| O=C(CCCc1nc(-c2ccccc2Cl)no1)NCc1cccnc1 | 3.78 |
| COc1ccccc1OCC(=O)Nc1ccc(Cl)cc1C(=O)c1ccccc1 | 7.29 |
| CSCCC(c1nnnn1-c1c(C)cccc1C)N1CCC(n2c(=O)[nH]c3ccccc32)CC1 (stereo unspecified) | 1.32 |
| CC(C)NC(=O)Nc1ccc2c(c1)C(=O)N([C@@H](C)CO)C[C@@H](C)[C@@H](CN(C)S(=O)(=O)c1ccccc1)OCCCC[C@H](C)O2 | 14.8 |
| Cc1cccc(C)c1-n1nnnc1C(c1cccs1)N1CCC(n2c(=O)[nH]c3ccccc32)CC1 (stereo unspecified) | 5.87 |
| CCC(=O)N(CC)c1nc(-c2ccc(OC)cc2)cs1 | 3.53 |
| C[C@@H]1CN([C@@H](C)CO)C(=O)c2c(c3ccccc3n2C)-c2ccccc2CO[C@@H]1CN(C)C(=O)c1ccc(F)cc1 | 4.7 |
| COc1ccc(C(=O)NN(C)c2nc(-c3ccccc3)cc(C)c2S(C)(=O)=O)cc1 | 19 |
| CO[C@@H](C(=O)N(C)C[C@H]1OCc2ccccc2-c2c(n(C)c3ccccc23)C(=O)N([C@H](C)CO)C[C@H]1C)c1ccccc1 | 8.25 |
| CCN(CC)C(=O)CSc1nnc2nnc3cc(Cl)ccc3n12 | 17.9 |
| CN1C(=O)/C(=C\c2ccc(N3CCCCC3)o2)C(=O)NC1=S | 4.61 |
| Cc1cccc(-c2ccc3[nH]c4c(c3c2)CCN2C[C@@H]([C@H](C)O)[C@@H](N(C)C(=O)NC3CCCCC3)C[C@@H]42)c1 | 13.7 |
| CC(=O)Nc1ccc(NC(=O)CN(c2cc(Cl)ccc2Cl)S(C)(=O)=O)cc1 | 1.14 |

| Compound | AC40 [µM] |
| --- | --- |
| O=C(CN1CCC(N2CCCCC2)CC1)N1CCCc2ccccc21 | 11.1 |
| Oc1ccc(Nc2nnc(-c3ccc(O)cc3)c3ccccc23)cc1 | 1.57 |
| O=C(NCc1csc(-c2cccs2)n1)c1cccc(Cl)c1 | 6.13 |
| N#C/C(=C(/O)c1ccco1)c1nc2ccccc2[nH]1 | 0.841 |
| C[C@H](CO)N1C[C@H](C)[C@H](CN(C)Cc2ccc(C(=O)Nc3ccccc3N)cc2)Oc2c(NC(=O)c3ccncc3)cccc2C1=O | 12 |
| CCOc1ccc2c(c1)C(C)=CC(C)(C)N2S(=O)(=O)c1ccc(C)cc1 | 0.781 |
| CC(Sc1nc2ccccc2s1)C(=O)NC1CCCc2ccccc21 (stereo unspecified) | 12.4 |
| COc1ccc(C2CC(=O)N(C)c3ccccc3S2)cc1 (stereo unspecified) | 6.61 |
| Cc1cc(C)nc(NC(=O)c2c(-c3ccccc3Cl)noc2C)n1 | 16.8 |
| CCN1CCN(C(=O)c2ccc3c(=O)n(CCC4=CCCCC4)c(=O)[nH]c3c2)CC1 | 1.94 |
| CCCCSc1ccc(NC(=O)c2cccnc2)cc1 | 1.78 |
| Cc1cc2oc(=O)cc(CN3CCC(C)CC3)c2cc1C | 5.71 |
| NC(=O)Cc1ccc2c(c1)[nH]c1ccccc12 | 1.33 |
| O=[N+]([O-])c1cc(-c2nnc(Nc3ccc(O)cc3)c3ccccc23)ccc1N1CCOCC1 | 2.74 |
| COc1ccc(NC(=O)C2(C)Cc3c(-c4cccc(NC(C)=O)c4)ccnc3O2)cc1 (stereo unspecified) | 17.1 |
| C[C@@H]1CN([C@H](C)CO)C(=O)c2c(c3ccccc3n2C)-c2ccccc2CO[C@@H]1CN(C)C(=O)Nc1cccc(C(F)(F)F)c1 | 10.5 |
| COc1ccc2nc3c(cc2c1)c(NC(=O)c1cccs1)nn3CC(C)C | 5.35 |
| C[C@@H]1CN([C@H](C)CO)C(=O)c2cc(N(C)C)ccc2O[C@@H](C)CCCCO[C@H]1CN(C)C(=O)Nc1ccccc1 | 10.6 |
| CCCc1cc2c(cc1N(C)S(=O)(=O)c1ccccc1)OCO2 | 2.96 |
| CC(=O)Nc1nonc1-c1nc2ccccc2n1Cc1ccccc1 | 4.88 |
| C[C@@H]1CN([C@@H](C)CO)C(=O)c2c(c3ccccc3n2C)-c2ccccc2CO[C@@H]1CN(C)C(=O)Nc1cccc(C(F)(F)F)c1 | 10 |
| O=C(NCCC1=CCCCC1)c1coc(=O)c(Br)c1 | 1.37 |
| Oc1ccc(C[C@@H]2CNCCN2CCC23CC4CC(CC(C4)C2)C3)cc1 | 6.79 |
| Cc1cccc(CS(=O)(=O)c2ncc(Cl)c(C(=O)Nc3ccc(F)cc3)n2)c1 | 1.56 |
| CC(=O)c1cccc(N(C(=O)c2cnccn2)C(C(=O)NCc2ccccc2)c2ccco2)c1 (stereo unspecified) | 1.39 |
| Cc1ccc(NC(=O)c2sccc2SCc2cccc(C(F)(F)F)c2)cc1 | 5.13 |

| Compound | AC40 [µM] |
| --- | --- |
| Cc1cc(S(=O)(=O)c2ccc([N+](=O)[O-])cn2)ccc1Br | 0.421 |
| CCOC(=O)CCc1c(C)c2ccc(O)cc2oc1=O | 0.371 |
| CCn1c(SCC(=O)Nc2ccc(NC(=O)c3ccco3)cc2)nnc1-c1cccs1 | 1.7 |
| COc1ccc(-c2nc(N)c(C#N)c(-c3cccnc3)c2C)cc1 | 0.69 |
| O=C(c1cccs1)N1CCN(c2nnc(-c3ccccc3)c3ccccc23)CC1 | 1.65 |
| COc1cccc(S(=O)(=O)N(C)C[C@@H]2Oc3cc(C4=CCCC4)ccc3S(=O)(=O)N([C@H](C)CO)C[C@@H]2C)c1 | 13 |
| CC(=O)Nc1ccc(NC(=O)CN(c2cccc([N+](=O)[O-])c2)S(C)(=O)=O)cc1 | 0.482 |
| CCN(CC)CCNC(=O)c1ccc2c(c1NCCO)C(=O)c1ccccc1C2=O | 14.6 |
| COc1cc(-c2cnc3c(NC(C)=O)cc(-c4ccccc4CN(C)C)cn23)cc(OC)c1OC | 8.19 |
| COc1ccc(C#Cc2c(-c3ccccc3)n(-c3ccccc3)c3ccc(CO)cc23)cc1 | 2.19 |
| CC(C)(C)c1ccc(NC(=O)N2CCCN(c3ccc([N+](=O)[O-])cn3)CC2)cc1 | 0.25 |
| O=C1NCN(c2ccccc2)C12CCN(C(c1cccc3ccccc13)c1nnnn1C1CCCCC1)CC2 (stereo unspecified) | 5.43 |
| CCCCC(=O)Nc1ccc(C(=O)NCCCn2ccnc2)cc1 | 0.269 |
| COc1ccc(NC(=O)C(=O)NCCC2CCCCN2S(=O)(=O)c2cccs2)cc1 (stereo unspecified) | 17.9 |
| COc1cc(OC)c2c(-c3cccc(-c4cccc(C)c4)c3)cc(=O)oc2c1 | 1.56 |
| CCCCn1c(CN(Cc2ccccc2)Cc2ccccc2)nc2c1c(=O)n(C)c(=O)n2C | 3.88 |
| CCOC(=O)C(NC(=O)c1ccccc1OCC)(Nc1ncccn1)C(F)(F)F (stereo unspecified) | 1.32 |
| COc1ccc(C(CNC(=O)c2cccc(N(C)C)c2)N2CCCC2)cc1 (stereo unspecified) | 5.4 |
| CCN(CC)c1ccc(N)cc1S(=O)(=O)Nc1ccccc1OC | 3 |
| CC1=CC(C)(C)N2C(=O)C3(SCC(=O)N3c3ccc(F)cc3)c3cc(C)cc1c32 (stereo unspecified) | 0.966 |
| Cc1ccccc1-c1ccc2c(c1)O[C@H](CN(C)Cc1ccncc1)[C@@H](C)CN([C@@H](C)CO)S2(=O)=O | 14.9 |
| CC(=O)c1cc(-c2ccccc2)n(CCC(=O)NC2CCCCC2)c1C | 7.4 |
| COc1ccc(OC(=O)N(C)C[C@H]2OCc3ccccc3-c3c(n(C)c4ccccc34)C(=O)N([C@@H](C)CO)C[C@H]2C)cc1 | 6.72 |
